The assay deals with T1, EPOR (erythropoietin receptor), human recombinant, NSO cells (Homo sapiens, UniProt P19235).
T1 construct: host or cells: NSO cells
T1 sequence (P19235 25-250 limits assumed): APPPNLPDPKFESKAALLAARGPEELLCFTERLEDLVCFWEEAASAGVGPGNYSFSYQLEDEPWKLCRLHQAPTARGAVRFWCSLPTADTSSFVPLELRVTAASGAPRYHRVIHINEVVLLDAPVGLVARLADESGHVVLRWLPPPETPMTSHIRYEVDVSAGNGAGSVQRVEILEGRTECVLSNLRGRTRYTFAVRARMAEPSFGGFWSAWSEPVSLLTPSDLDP
The experiment in a line: EPOR radioligand binding assay ([125I] Erythropoietin competition). Here is the method:
IC50 values were determined by a non-linear, least squares regression analysis using MATHIQ™ (computer software for integrating mathematical functions into new or existing software). […] Where presented, the Hill coefficient (nH), defining the slope of the competitive binding curve, was calculated using MATHIQ™.

Where [1] appears, read: Example 1, mimetics varied in N-end, loop and mid sequences.
Where [2] appears, read: Example 2, mimetics varied in loop, mid and C-end.

From patent US9422338B2 (EpoDose LLC, priority 2011, dated 2016) come the findings set out here.

Where a SMILES comes first, the peptide text is derived from it. Bridges are numbered along the chain shown (N, C = ends). Roman numbers before positions name the chains, in order. [ ]: non-standard residue; d: D form. ξ: configuration not given here. 1Nal = N[C@@H](Cc1cccc2ccccc12)C(=O)O; ξK = NCCCCC(N)C(=O)O; Ava = NCCCCC(=O)O

In the case of `CSCC[C@@H]1NC(=O)[C@H](CCCNC(=N)N)NC(=O)C(NC(=O)[C@H](CC(C)C)NC(=O)[C@H](Cc2ccc(O)cc2)NC(=O)[C@H](CC(N)=O)NC(C)=O)CCOCC(C(=O)N[C@@H](CCCCN)C(=O)N2CCC[C@H]2C(=O)NCCCCC(=O)NCCCCC(NC(=O)[C@@H]2CCCN2C(=O)[C@H](CCCCN)NC(=O)C2COCCC(NC(=O)[C@H](CC(C)C)NC(=O)[C@H](Cc3ccc(O)cc3)NC(=O)[C@H](CC(N)=O)NC(C)=O)C(=O)N[C@@H](CCCNC(=N)N)C(=O)N[C@@H](CCSC)C(=O)N[C@@H](CC(C)C)C(=O)N[C@@H](Cc3c[nH]c4ccccc34)C(=O)N[C@@H](C(C)C)C(=O)N2)C(N)=O)NC(=O)[C@H](C(C)C)NC(=O)[C@H](Cc2c[nH]c3ccccc23)NC(=O)[C@H](CC(C)C)NC1=O` (some centres unmarked) [AC-0005-024], under setting [1], the inhibitory constant (Ki) was found to be 34 nM. Under “Example 4, fourth table”, the half-inhibitory concentration (IC50) stood at 72 nM.

As for `CSCC[C@@H]1NC(=O)[C@H](Cc2c[nH]cn2)NC(=O)C(NC(=O)[C@H](CC(C)C)NC(=O)[C@H](Cc2ccc(O)cc2)NC(=O)[C@H](CC(N)=O)NC(C)=O)CCOCC(C(=O)N[C@@H](CCCCNC(=N)N)C(=O)N2CCC[C@H]2C(=O)NCCCCC(=O)NCCCCC(NC(=O)[C@@H]2CCCN2C(=O)[C@H](CCCCNC(=N)N)NC(=O)C2COCCC(NC(=O)[C@H](CC(C)C)NC(=O)[C@H](Cc3ccc(O)cc3)NC(=O)[C@H](CC(N)=O)NC(C)=O)C(=O)N[C@@H](Cc3c[nH]cn3)C(=O)N[C@@H](CCSC)C(=O)N3CCC[C@H]3C(=O)N[C@@H](Cc3c[nH]c4ccccc34)C(=O)N[C@@H](C(C)C)C(=O)N2)C(N)=O)NC(=O)[C@H](C(C)C)NC(=O)[C@H](Cc2c[nH]c3ccccc23)NC(=O)[C@@H]2CCCN2C1=O` (some centres unmarked) [AC-0005-054], the Ki under setting [1] is 15.5 nM and the Ki (Example 3, Cheng-Prusoff) was 30.9 nM. Moreover, the IC50 (Example 3) came to 65.1 nM and the IC50 (Example 4, fifth table) amounted to 33 nM.

For `CSCC[C@@H]1NC(=O)[C@H](CCCNC(=N)N)NC(=O)C(NC(=O)[C@H](CC(C)C)NC(=O)[C@H](Cc2ccc(O)cc2)NC(=O)[C@H](CC(N)=O)NC(C)=O)CCOCC(C(=O)N[C@@H](CCCCN)C(=O)N2CCC[C@H]2C(=O)NC(CCCCNC(=O)CCCC(NC(=O)[C@@H]2CCCN2C(=O)[C@H](CCCCN)NC(=O)C2COCCC(NC(=O)[C@H](CC(C)C)NC(=O)[C@H](Cc3ccc(O)cc3)NC(=O)[C@H](CC(N)=O)NC(C)=O)C(=O)N[C@@H](CCCNC(=N)N)C(=O)N[C@@H](CCSC)C(=O)N3CCC[C@H]3C(=O)N[C@@H](Cc3ccc4ccccc4c3)C(=O)N[C@@H](C(C)C)C(=O)N2)C(=O)N[C@@H](CCCNC(=N)N)C(N)=O)C(=O)N[C@@H](CCCNC(=N)N)C(N)=O)NC(=O)[C@H](C(C)C)NC(=O)[C@H](Cc2ccc3ccccc3c2)NC(=O)[C@@H]2CCCN2C1=O` (some centres unmarked) [AC-0005-061], under setting [2], the inhibition constant (Ki) was determined as 27.7 nM. Also, the IC50 (Example 4, sixth table) is 58.5 nM.

On to `CSCC[C@@H]1NC(=O)[C@H](CCCNC(=N)N)NC(=O)C(NC(=O)[C@H](CC(C)C)NC(=O)[C@H](Cc2ccc(O)cc2)NC(=O)[C@H](CC(N)=O)NC(C)=O)CCOCC(C(=O)N[C@@H](CCCCNC(=N)N)C(=O)N2CCC[C@H]2C(=O)NCCCCC(=O)NCCCCC(NC(=O)[C@@H]2CCCN2C(=O)[C@H](CCCCNC(=N)N)NC(=O)C2COCCC(NC(=O)[C@H](CC(C)C)NC(=O)[C@H](Cc3ccc(O)cc3)NC(=O)[C@H](CC(N)=O)NC(C)=O)C(=O)N[C@@H](CCCNC(=N)N)C(=O)N[C@@H](CCSC)C(=O)N3CCC[C@H]3C(=O)N[C@@H](Cc3ccc4ccccc4c3)C(=O)N[C@@H](C(C)C)C(=O)N2)C(N)=O)NC(=O)[C@H](C(C)C)NC(=O)[C@H](Cc2ccc3ccccc3c2)NC(=O)[C@@H]2CCCN2C1=O` (some centres unmarked) [AC-0005-055], for which the Ki by setting is: under setting [1], 4.8 nM; under setting [2], 6 nM; (Example 3, Cheng-Prusoff) 5.23 nM; (Example 4, sixth table) 6 nM. Besides, the IC50 (Example 3) worked out at 11 nM; the IC50 (Example 4, fifth table) was 10.2 nM; the IC50 (Example 4, sixth table) amounted to 12.6 nM.

As to `CC[C@H](C)[C@@H]1NC(=O)[C@@H]2CCCN2C(=O)CNC(=O)[C@H](CCSC)NC(=O)[C@H](Cc2c[nH]cn2)NC(=O)[C@@H](NC(=O)[C@H](C)NC(=O)[C@H](Cc2ccc(O)cc2)NC(=O)[C@H](CC(C)C)NC(C)=O)CSSC[C@@H](C(=O)NCCCCC(=O)NCCCCC(NC(=O)[C@@H]2CSSC[C@H](NC(=O)[C@H](C)NC(=O)[C@H](Cc3ccc(O)cc3)NC(=O)[C@H](CC(C)C)NC(C)=O)C(=O)N[C@@H](Cc3c[nH]cn3)C(=O)N[C@@H](CCSC)C(=O)NCC(=O)N3CCC[C@H]3C(=O)N[C@@H]([C@@H](C)CC)C(=O)N[C@@H]([C@@H](C)O)C(=O)N[C@@H](Cc3cccc4ccccc34)C(=O)N[C@@H](C(C)C)C(=O)N2)C(N)=O)NC(=O)[C@H](C(C)C)NC(=O)[C@H](Cc2cccc3ccccc23)NC(=O)[C@H]([C@@H](C)O)NC1=O` (some centres unmarked) [AC-0005-006] (I: Ac-LYACHMGPIT[1Nal]VC[ξK]-NH2 / II: Ac-LYACHMGPIT[1Nal]VC[Ava]; disulfide I:4-I:13, II:4-II:13; amide I:14-II:C), the IC50 (Example 4, first table) is more than 10000 nM.

With `CSCC[C@@H]1NC(=O)[C@H](Cc2c[nH]cn2)NC(=O)C(NC(=O)[C@H](CC(C)C)NC(=O)[C@H](Cc2ccc(O)cc2)NC(=O)[C@H](CC(N)=O)NC(C)=O)CCOCC(C(=O)N[C@@H](CCCCNC(=N)N)C(=O)N2CCC[C@H]2C(=O)NCCCCC(=O)NCCCCC(NC(=O)[C@@H]2CCCN2C(=O)[C@H](CCCCNC(=N)N)NC(=O)C2COCCC(NC(=O)[C@H](CC(C)C)NC(=O)[C@H](Cc3ccc(O)cc3)NC(=O)[C@H](CC(N)=O)NC(C)=O)C(=O)N[C@@H](Cc3c[nH]cn3)C(=O)N[C@@H](CCSC)C(=O)N3CCC[C@H]3C(=O)N[C@@H](Cc3ccc4ccccc4c3)C(=O)N[C@@H](C(C)C)C(=O)N2)C(N)=O)NC(=O)[C@H](C(C)C)NC(=O)[C@H](Cc2ccc3ccccc3c2)NC(=O)[C@@H]2CCCN2C1=O` (some centres unmarked) [AC-0005-056], the Ki is, setting by setting: under setting [1], 11.2 nM; (Example 3, Cheng-Prusoff) 11.1 nM. Further, the IC50 by setting is: (Example 3) 23.5 nM; (Example 4, fifth table) 24 nM.
